Measurements published in patent US20240368169A1 (priority 2021, published 2024).
pIC50: −log10 of the molar value.

tested on: MDA-MB-436 cells; experiment: Growth inhibition assay against BRCA mutant human breast cancer MDA-MB-436 cell line (CCK-8, 7 days); type: cell-based

Going from CNC(=O)c1ccc(N2CCN(Cc3ccc4c(c3)[nH]c(=O)c3c(C)cnn34)CC2)c(C)n1 [Example 58, 7-((4-(2-methyl-6-(methylcarbamoyl)pyridin-3-yl)piperazin-1-yl)methyl)-3-methylpyrazolo[1,5-a]quinoxalin-4(5H)-one] to CNC(=O)c1ccc(N2CCN(Cc3ccc4c(c3)[nH]c(=O)c3ncnn34)CC2)c(C)n1 [Example 29, 7-((4-(2-methyl-6-(methylcarbamoyl)pyridin-3-yl)piperazin-1-yl)methyl)-[1,2,4]triazolo[1,5-a]quinoxalin-4(5H)-one], the pIC50 falls from 8.73 to 7.55 (1.18 log units).

First: CNC(=O)c1ccc(N2CCN(Cc3cc(F)c4c(c3)[nH]c(=O)c3ccnn34)CC2)cn1 [Example 97, 7-((4-(6-(methylcarbamoyl)pyridin-3-yl)piperazin-1-yl)methyl)-9-fluoropyrazolo[1,5-a]quinoxalin-4(5H)-one]
Second: CNC(=O)c1ccc(N2CCN(Cc3cc(F)c4c(c3)[nH]c(=O)c3ccnn34)CC2)c(Cl)n1 [Example 45, 7-((4-(2-chloro-6-(methylcarbamoyl)pyridin-3-yl)piperazin-1-yl)methyl)-9-fluoropyrazolo[1,5-a]quinoxalin-4(5H)-one]
The pIC50 of the first is 1.69 log units lower: 6.96 for the first, 8.65 for the second.

CNC(=O)c1ccc(N2CCN(Cc3ccc4c(c3)[nH]c(=O)n3ccnc43)CC2)c(C)n1 [Example 31, 8-((4-(2-methyl-6-(methylcarbamoyl)pyridin-3-yl)piperazin-1-yl)methyl)imidazo[1,2-c]quinazolin-5(6H)-one] and CNC(=O)c1ccc(N2CCN(Cc3cc(F)c4c(c3)[nH]c(=O)n3ccnc43)CC2)c(C)n1 [Example 96, 8-((4-(2-methyl-6-(methylcarbamoyl)pyridin-3-yl)piperazin-1-yl)methyl)-10-fluoroimidazo[1,2-c]quinazolin-5(6H)-one] are within 0.2 log units of each other in pIC50: 8.68 for the first, 8.71 for the second.

CNC(=O)c1ccc(N2CCN(Cc3cc(F)c4c(c3)[nH]c(=O)c3cccn34)CC2)c(F)n1 [Example 41, 7-((4-(2-fluoro-6-(methylcarbamoyl)pyridin-3-yl)piperazin-1-yl)methyl)-9-fluoropyrrolo[1,2-a]quinoxalin-4(5H)-one] and CNC(=O)c1ccc(N2CCN(Cc3cc(F)c4c(c3)[nH]c(=O)c3cccn34)CC2)c(Cl)n1 [Example 42, 7-((4-(2-chloro-6-(methylcarbamoyl)pyridin-3-yl)piperazin-1-yl)methyl)-9-fluoropyrrolo[1,2-a]quinoxalin-4(5H)-one] are within 0.2 log units of each other in pIC50: 8.85 for the first, 9.03 for the second.

O=C(NC1CC1)c1ccc(N2CCN(Cc3cc(F)c4c5c(c(=O)[nH]c4c3)CCC5)CC2)c(F)n1 [Example 82, 7-((4-(2-fluoro-6-(cyclopropylcarbamoyl)pyridin-3-yl)piperazin-1-yl)methyl)-9-fluoro-1,2,3,5-tetrahydro-4H-cyclopenta[c]quinolin-4-one] and Cc1nc(C(=O)NC2CC2)ccc1N1CCN(Cc2cc(F)c3c4c(c(=O)[nH]c3c2)CCC4)CC1 [Example 81, 7-((4-(2-methyl-6-(cyclopropylcarbamoyl)pyridin-3-yl)piperazin-1-yl)methyl)-9-fluoro-1,2,3,5-tetrahydro-4H-cyclopenta[c]quinolin-4-one] are within 0.2 log units of each other in pIC50: 8.44 for the first, 8.33 for the second.

CNC(=O)c1ccc(N2CCN(Cc3cc(Cl)c4c(c3)[nH]c(=O)c3ccnn34)CC2)c(F)n1 [Example 47, 7-((4-(2-fluoro-6-(methylcarbamoyl)pyridin-3-yl)piperazin-1-yl)methyl)-9-chloropyrazolo[1,5-a]quinoxalin-4(5H)-one] and CNC(=O)c1ccc(N2CCN(Cc3cc(Cl)c4c(c3)[nH]c(=O)c3ccnn34)CC2)c(C)n1 [Example 46, 7-((4-(2-methyl-6-(methylcarbamoyl)pyridin-3-yl)piperazin-1-yl)methyl)-9-chloropyrazolo[1,5-a]quinoxalin-4(5H)-one] are within 0.2 log units of each other in pIC50: 8.59 for the first, 8.64 for the second.

CNC(=O)c1ccc(N2CCN(Cc3ccc4c5c(c(=O)[nH]c4c3)CCC5)CC2)c(C)n1 [Example 17, 7-((4-(2-methyl-6-(methylcarbamoyl)pyridin-3-yl)piperazin-1-yl)methyl)-1,2,3,5-tetrahydro-4H-cyclopenta[c]quinolin-4-one] and CCNC(=O)c1ccc(N2CCN(Cc3ccc4c5c(c(=O)[nH]c4c3)CCC5)CC2)c(C)n1 [Example 49, 7-((4-(2-methyl-6-(ethylcarbamoyl)pyridin-3-yl)piperazin-1-yl)methyl)-1,2,3,5-tetrahydro-4H-cyclopenta[c]quinolin-4-one] are within 0.2 log units of each other in pIC50: 8.59 for the first, 8.66 for the second.

Going from Cc1nc(C(=O)O)ccc1N1CCN(Cc2cc(F)c3c(c2)[nH]c(=O)c2ccnn23)CC1 [Example 116, 7-((4-(2-methyl-6-carboxypyridin-3-yl)piperazin-1-yl)methyl)-9-fluoropyrazolo[1,5-a]quinoxalin-4(5H)-one] to CNC(=O)c1ccc(N2CCN(Cc3cc(F)c4c(c3)[nH]c(=O)c3ccnn34)CC2)c(C)n1 [Example 43, 7-((4-(2-methyl-6-(methylcarbamoyl)pyridin-3-yl)piperazin-1-yl)methyl)-9-fluoropyrazolo[1,5-a]quinoxalin-4(5H)-one], the pIC50 rises from under 7.00 to 8.92.

First: Cc1nc(C(=O)NC2CC2)ccc1N1CCN(Cc2ccc3c4c(c(=O)[nH]c3c2)COC4)CC1 [Example 63, 7-((4-(2-methyl-6-(cyclopropylcarbamoyl)pyridin-3-yl)piperazin-1-yl)methyl)-3,5-dihydrofuro[3,4-c]quinolin-4(1H)-one]
Second: CNC(=O)c1ccc(N2CCN(Cc3ccc4c5c(c(=O)[nH]c4c3)COC5)CC2)cn1 [Example 1, 7-((4-(6-(methylcarbamoyl)pyridin-3-yl)piperazin-1-yl)methyl)-3,5-dihydrofuro[3,4-c]quinolin-4(1H)-one]
The pIC50 of the first is 1.71 log units higher: 8.48 for the first, 6.77 for the second.

CNC(=O)c1ccc(N2CCN(Cc3ccc4c(c3)[nH]c(=O)c3c(Cl)cnn34)CC2)c(F)n1 [Example 99, 7-((4-(2-fluoro-6-(methylcarbamoyl)pyridin-3-yl)piperazin-1-yl)methyl)-3-chloropyrazolo[1,5-a]quinoxalin-4(5H)-one] and CNC(=O)c1ccc(N2CCN(Cc3ccc4c(c3)[nH]c(=O)c3cccn34)CC2)c(F)n1 [Example 34, 7-((4-(2-fluoro-6-(methylcarbamoyl)pyridin-3-yl)piperazin-1-yl)methyl)pyrrolo[1,2-a]quinoxalin-4(5H)-one] are within 0.2 log units of each other in pIC50: 9.27 for the first, 9.12 for the second.

Compared with CNC(=O)c1ccc(N2CCN(Cc3ccc4c(c3)[nH]c(=O)c3cccn34)CC2)cn1 [Example 65, 7-((4-(6-(methylcarbamoyl)pyridin-3-yl)piperazin-1-yl)methyl)pyrrolo[1,2-a]quinoxalin-4(5H)-one], CNC(=O)c1ccc(N2CCN(Cc3ccc4c(c3)[nH]c(=O)c3cncn34)CC2)c(Cl)n1 [Example 39, 7-((4-(2-chloro-6-(methylcarbamoyl)pyridin-3-yl)piperazin-1-yl)methyl)imidazo[1,5-a]quinoxalin-4(5H)-one] is 0.50 log units lower in pIC50: 8.95 for the first, 8.45 for the second.

O=C(NC1CC1)c1ccc(N2CCN(Cc3ccc4c(c3)[nH]c(=O)c3cccn34)CC2)c(F)n1 [Example 60, 7-((4-(2-fluoro-6-(cyclopropylcarbamoyl)pyridin-3-yl)piperazin-1-yl)methyl)pyrrolo[1,2-a]quinoxalin-4(5H)-one] and O=C(NC1CC1)c1ccc(N2CCN(Cc3ccc4c(c3)[nH]c(=O)c3cccn34)CC2)c(Cl)n1 [Example 61, 7-((4-(2-chloro-6-(cyclopropylcarbamoyl)pyridin-3-yl)piperazin-1-yl)methyl)pyrrolo[1,2-a]quinoxalin-4(5H)-one] are within 0.2 log units of each other in pIC50: 9.20 for the first, 9.01 for the second.

Compared with CNC(=O)c1ccc(N2CCN(Cc3ccc4c(c3)[nH]c(=O)c3cncn34)CC2)c(C)n1 [Example 26, 7-((4-(2-methyl-6-(methylcarbamoyl)pyridin-3-yl)piperazin-1-yl)methyl)imidazo[1,5-a]quinoxalin-4(5H)-one], CNC(=O)c1ccc(N2CCN(Cc3ccc4c(c3)[nH]c(=O)c3cc(C)cn34)CC2)c(C)n1 [Example 55, 7-((4-(2-methyl-6-(methylcarbamoyl)pyridin-3-yl)piperazin-1-yl)methyl)-2-methylpyrrolo[1,2-a]quinoxalin-4(5H)-one] is 1.22 log units higher in pIC50: 7.62 for the first, 8.84 for the second.

Going from CNC(=O)c1ccc(N2CCN(Cc3cc4[nH]c(=O)c5ccnn5c4cc3F)CC2)c(C)n1 [Example 93, 7-((4-(2-methyl-6-(methylcarbamoyl)pyridin-3-yl)piperazin-1-yl)methyl)-8-fluoropyrazolo[1,5-a]quinoxalin-4(5H)-one] to [2H]C([2H])([2H])NC(=O)c1ccc(N2CCN(Cc3cc(F)c4c(c3)[nH]c(=O)c3ccnn34)CC2)c(C)n1 [Example 90, 7-((4-(2-methyl-6-((methyl-d3)-carbamoyl)pyridin-3-yl)piperazin-1-yl)methyl)-9-fluoropyrazolo[1,5-a]quinoxalin-4(5H)-one], the pIC50 rises from 8.25 to 8.61 (0.36 log units).

Going from CNC(=O)c1ccc(N2CCN(Cc3cc(F)c4c(c3)[nH]c(=O)c3cc(C)nn34)CC2)c(C)n1 [Example 75, 7-((4-(2-methyl-6-(methylcarbamoyl)pyridin-3-yl)piperazin-1-yl)methyl)-9-fluoro-2-methylpyrazolo[1,5-a]quinoxalin-4(5H)-one] to CNC(=O)c1ccc(N2CCN(Cc3cc(F)c4c5c(c(=O)[nH]c4c3)CCC5)CC2)c(C)n1 [Example 79, 7-((4-(2-methyl-6-(methylcarbamoyl)pyridin-3-yl)piperazin-1-yl)methyl)-9-fluoro-1,2,3,5-tetrahydro-4H-cyclopenta[c]quinolin-4-one], the pIC50 rises from 8.48 to 8.98 (0.50 log units).

First: CNC(=O)c1ccc(N2CCN(Cc3ccc4c(c3)[nH]c(=O)n3nccc43)CC2)c(C)n1 [Example 118, 8-((4-(2-methyl-6-(methylcarbamoyl)pyridin-3-yl)piperazin-1-yl)methyl)pyrazolo[1,5-c]quinazolin-5(6H)-one]
Second: CCNC(=O)c1ccc(N2CCN(Cc3ccc4c5c(c(=O)[nH]c4c3)CCC5)CC2)c(Cl)n1 [Example 50, 7-((4-(2-chloro-6-(ethylcarbamoyl)pyridin-3-yl)piperazin-1-yl)methyl)-1,2,3,5-tetrahydro-4H-cyclopenta[c]quinolin-4-one]
The pIC50 of the first is 0.27 log units lower: 7.97 for the first, 8.24 for the second. The second is the more potent here.
